Laboratory results from US20200289521A1, “USE OF VITAMIN K IN COMBINATION WITH ANTICOAGULANTS” (KAYDENCE PHARMA AS, priority 2019, published 2020).

How the values were obtained:
[1] = tested on: VSMCs; assay: ATP increase in VSMCs, 24 hours (luminescence); assay type: cell-based; settings: 10 μM
Description: This study was performed to determine if vitamin K2 (MK-7) affects ATP generation. ATP is generated via glycolysis in the cytoplasm and via both the Krebs-cycle and oxidative phosphorylation in the mitochondria. ATP generation via glycolysis delivers only 2 ATP, whereas ATP generation in the mitochondria generates some 32 ATP.
To perform this study, VSCMs (5000 cells/well) were plated in 96-well plates and left to adhere overnight. Next, cells were incubated for 24 hours with either vehicle, vitamin K2 (MK-7) (10 μM), or UQ10 (10 μM). Hoechst was added to correct for cell number (1 μg/mL). Next, ATP was measured using mammalian lysis buffer for 5 minutes after which 50 μL ATP substrate solution was added to the wells and incubated for 10 minutes in a dark environment. Finally, the medium was transferred to a white plate to measure luminescence

[2] = tested on: VSMCs; assay: Hypoxia (CoCl2) induced oxidative stress in VSMCs (DCFDA); assay type: cell-based; settings: 50 μM CoCl2 for 19 hours; test substance 10 μM; 6 hours
Description: This study was performed to determine whether intracellular oxidative stress in VSCMs is derived from mitochondrial dysfunction. To perform this study, VSMCs were incubated with cobalt chloride, a known stabilizer of HIF1a. Cobalt chloride binding to HIF1a prevents the degradation of HIF1a and thus results in a cellular hypoxia state. HIF1a has been implicated in cancer biology as well as a number of other pathophysiologies, specifically in areas of vascularization and angiogenesis, energy metabolism, cell survival, and tumor invasion. Under normal circumstances, after injury, HIF1a is degraded by the enzyme prolyl hydroxylase (PHD). The continued up-regulation of HIF1a (mimicked by cobalt chloride) promotes tumor growth and metastasis through its role in initiating angiogenesis and regulating cellular metabolism to overcome hypoxia. Hypoxia promotes apoptosis in both normal and tumor cells. Additionally, hypoxia generates significant intracellular oxidative stress.
To perform the study, VSMCs (10,000 cells/well) were plated in a 96-well plate and left to adhere overnight. Next, the medium was changed to a medium supplemented with 50 μM CoCl2 for 19 hours. The next day, cells were washed and incubated for 1 hour with 20 μM DCFDA in the presence of a vehicle (solvent for CoCl2 and vitamin K2 (MK-7)/UQ10), 10 μM vitamin K2 (MK-7), or 10 μM UQ10 in medium. The medium was then changed to a medium supplemented with vehicle, vitamin K2 (MK-7)/UQ10, or CoCl2, and fluorescent was measured for 6 hours. Fluorescence intensity was normalized for cell count.

[3] = Thrombin Time (TT), Coag-Chrom 3003, treated Sprague-Dawley rats; assay type: in vivo; settings: added to dabigatran and to rivaroxaban
Description: To perform the study, 45 wild-type male Sprague-Dawley and 45 transgenic male Ren-2 rats [TGR(mREN-2)27] at the age of 10-11 weeks at the beginning of the treatment period were purchased from animal facility IKEM-CEM Institute of Clinical and Experimental Medicine (Prague, Czech Republic). All animals in the experiment were housed in individually ventilated cages (2-3 rats per cage) and kept in the animal rooms of JCET at a relative humidity of 55±10%, a temperature of 22±2° C., and a light cycle of 7 AM to 7 PM. The rats had free access to food and water. After delivery, animals were randomly divided into 10 experimental groups (5 or 10 rats per group), as indicated below in Table 1.
Four days before the start of the treatment, the first part of animals' body weight and food intake was measured in selected representative three cages (rats n=9) to calculate the appropriate amount of tested compounds required for addition to the diet to obtain the dosing indicated in Table 1. It was estimated that food intake was approximately 30 g of chow per rat per day. […] The body mass of the rats was measured at the beginning and at the end of treatment.
Prothrombin Time (PT), activated Partial Thromboplastin Time (aPTT), Thrombin Time (TT) and fibrinogen levels (Clauss method) were determined according to the manufacturer's instructions using Coag-Chrom 3003 apparatus (Bio-ksel, Grudziadz, Poland). […]

[4] = tested on: VSMCs; assay: ATP over time in VSMCs with vitamin K2 (luminescence); assay type: cell-based; settings: 10 μM, indicated time points
Description: To perform this study, first, VSCMs (5000 cells/well) were plated in 96-well plates and left to adhere overnight. Next, cells were incubated for indicated time points with vitamin K2 (MK-7) (10 μM). Hoechst was added to correct for cell number (1 μg/mL). Next, ATP was measured using mammalian lysis buffer for 5 minutes, after which 50 μL ATP substrate solution was added to the wells and incubated for 10 minutes in a dark environment. Finally, medium was transferred to a white plate to measure luminescence.

## CC(C)=CCC/C(C)=C/CC/C(C)=C/CC/C(C)=C/CC/C(C)=C/CC/C(C)=C/CC/C(C)=C/CC1=C(C)C(=O)c2ccccc2C1=O [vitamin K2 (MK-7)]
[1]
  ATP production compared to the vehicle: increased ATP production in VSMCs significantly (p=0.014)
[2]
  hypoxia induced oxidative stress: seems to counteract hypoxia induced oxidative stress
[3]
  increase of thrombin time by addition of vitamin K2 (MK-7): 5-7%
[4]
  ATP production over time: stimulated ATP production
